# Results published in patent US20230391730A1, “INHIBITORS OF THE BROMODOMAIN PHD FINGER TRANSCRIPTION FACTOR (BPTF) AS ANTI-CANCER AGENTS” (Regents of the University of Minnesota, priority 2020, published 2023).
# “Also recorded” adds a separate entry of the source.
# Assays:
# PCAF [1] = target: T1, PCAF (Homo sapiens, UniProt Q92831); experiment: PrOF NMR titration, 5FW-PCAF; type: binding; conditions: 5FW-labeled protein
# T1 construct: three class I bromodomains, BPTF, PCAF, CECR2 and one class II bromodomain, BRD4(1) were fluorine-labelled; made in house
# T1 sequence (Q92831 723-827): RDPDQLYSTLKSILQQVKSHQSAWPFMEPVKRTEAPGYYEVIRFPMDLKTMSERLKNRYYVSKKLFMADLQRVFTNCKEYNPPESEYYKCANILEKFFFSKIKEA
# Procedure: (§3) Protein-Observed Fluorine (PrOF) NMR. […] 40-50 μM of protein in 50 mM TRIS, 100 mM NaCl, and pH 7.4 was diluted by adding 25 μL of D2O and 2 μL of 0.1% TFA for NMR locking and referencing purposes, respectively. […] Ligands were titrated and the change in chemical shift relative to the control sample was plotted as a function of ligand concentration to generate binding isotherms. The data was processed in Mestrenova and isotherms were fit using GraphPad Prism with the equation below. Δδobs is the change in chemical shift, [L] is the total ligand concentration, and [P] is the total protein concentration:
# (§4) The tryptophan residue in the WPF shelf of three class I bromodomains, BPTF, PCAF, CECR2 and one class II bromodomain, BRD4(1) were fluorine-labelled (FIG. 4A) and the chemical shift perturbation on titrating in BZ1 was observed.
# 4T1 cells [2] = experiment: Combination with doxorubicin in 4T1 cells (MTS assay); type: cell-based, mouse; conditions: for sensitization of 4T1 cells to doxorubicin: 50 nM doxorubicin
# Procedure: (§1) Cell culture methods. 4T1 cells were grown to a confluency of 50-60% using media containing DMEM with 10% fetal bovine serum (FES), 2 mM glutamine and penicillin-streptomycin. 4T1 cells with snRNA-mediated BPTF knockdown (KD) were prepared as described previously. For NURF inhibitor toxicity study, 4000 cells/well were seeded in a 96-well plate and allowed to adhere overnight. The next day, 10 different dilutions of inhibitors were prepared starting with a highest concentration of 1.0 mM and further serially diluted 10 times to get the lowest concentration of 1.95 μM. Cells were treated with the inhibitors in complete media for 4 days. Thereafter, the MTS reagent was prepared using the CellTitre 96 aqueous MTS reagent (Promega, Cat #G1111) and phenazine methosulphate (Sigma, Cat #P9625). The MTS assay was performed as per manufacturer's protocol and the absorbance was recorded at a wavelength of 490 nm. Fraction cell survival was calculated using untreated control cells to indicate complete survival (1.0) and blank solutions as 0.0 survival. The data was derived from three independent experiments (N=3) and fraction survival was plotted as mean fraction survival±SEM using GraphPad Prism software. For checking the toxicity on wildtype and BPTF knockdown cells, three doses were selected for each inhibitor based on theft toxicity curves and treated for 4 days alone or in combination with 50 nM doxorubicin. Fraction survival was measured and calculated by MIS assay as mentioned above.
# [3] = type: physicochemical
# Procedure: UV-Vis Methods. Compounds were diluted in DMSO at a top concentration of 100 mM. 2-fold serial dilutions in DMSO where performed followed by 1000-fold dilution into phosphate saline buffer (PBS) to get a final top concentration of 100 μM in 0.1% DMSO for each compound. UV-Vis measurements at 254 nm were taken on a Biomate 3S Spectrophotometer.
# GCN5L2 = target: T2, GCN5L2 (Homo sapiens, UniProt Q92830); experiment: BROMOscan, GCN5L2; type: binding; conditions: BROMOscan one-point measurement at 140 nM
# T2 construct: off-target class I (PCAF, GCN5L2, CECR2,) and class IV (BRD7, BRD9) bromodomains and BRD4(1); purchased
# T2 sequence (Q92830 728-832 limits assumed): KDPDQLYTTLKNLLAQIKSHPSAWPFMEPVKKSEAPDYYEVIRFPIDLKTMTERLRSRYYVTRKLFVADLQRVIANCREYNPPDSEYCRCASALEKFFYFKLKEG
# Excerpt: (§2) Based on the preliminary assessment of BPTF selectivity and affinity of BZ1 by PrOF NMR and AlphaScreen competition assays, the ligand was characterized using a commercial BROMOscan assay. […]. Given the low concentration of ligand and protein used, AlphaScreen can be used to estimate K values as was previously the case for characterizing BRD4-ligand interactions, however the assay for BPTF may slightly underestimate the affinity. […] […]. Recently reported pyridazinone-based inhibitors also bind to these proteins and BRD9 was reported as the closest off-target for TP-238. These studies supported good on target-BPTF inhibition, and identified several off-targets bromodomains for a more quantitative selectivity analysis.
# CECR2 [4] = target: T3, CECR2 (Homo sapiens, UniProt Q9BXF3); experiment: BROMOscan, CECR2; type: binding; set-up: off-target class I (PCAF, GCN5L2, CECR2,) and class IV (BRD7, BRD9) bromodomains and BRD4(1); purchased; conditions: BROMOscan one-point measurement at 140 nM
# Excerpt: as §2
# Target sequence in this assay (Q9BXF3 434-538 limits assumed): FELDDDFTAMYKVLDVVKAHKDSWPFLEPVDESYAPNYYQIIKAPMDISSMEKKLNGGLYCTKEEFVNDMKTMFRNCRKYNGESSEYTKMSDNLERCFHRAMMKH
# CECR2 [5] = target: T3, CECR2; experiment: PrOF NMR titration, 5FW-CECR2; type: binding; set-up: three class I bromodomains, BPTF, PCAF, CECR2 and one class II bromodomain, BRD4(1) were fluorine-labelled; made in house; conditions: 5FW-labeled protein
# Target sequence in this assay (Q9BXF3 434-538): as the sequence (Q9BXF3 434-538 limits assumed) above
# Procedure: as §3, §4
# BRD4(1) [6] = target: T4, BRD4(1) (Homo sapiens, UniProt O60885); experiment: PrOF NMR titration, 5FW-BRD4(1); type: binding; set-up: three class I bromodomains, BPTF, PCAF, CECR2 and one class II bromodomain, BRD4(1) were fluorine-labelled; made in house; conditions: 5FW-labeled protein
# Procedure: as §3, §4
# [7] = disclosed by the structural genomics consortium; cited from earlier work
# Sfn = experiment: RT-qPCR of BPTF regulated genes in Eph4 cells, Sfn; type: cell-based, murine; conditions: 5 μM, 24 h, relative to DMSO
# Procedure: qPCR methods. Eph4 cells were treated for 24 h and harvested in trizol. RNA extraction was carried out via chloroform extractions. cDNA creation was completed via SuperScript III cDNA creation kit (Invitrogen, #12574026). All qpcrs are normalized to EPH4 DMSO and the house keeping gene beta actin. Bars represent 2 biological replicates and 3 technical replicates. All statistical analysis are student's t-test carried out on GraphPad. Reactions were carried out on the Quantstudio 6 platform using Sybr Green PCR Master Mix (Applied Biosystems, #4309155) Statistically significant differences for cell line treatment groups were considered with a one-way Anova p-value lower than 0.05 (p<0.05).
# It's been previously shown that BPTF inhibition was associated with alteration to lineage commitment and stem cell maintenance. Loss of BPTF expression in a mixed population of Krt5-expressing mammary stem cells induced differentiation, a process that was accompanied by changes to chromatin accessibility and altered gene expression activation. The effects of the BPTF inhibitors described herein were investigated in mammary luminal cells.
# Eph4 cells = conditions: 5 μM
# Procedure: Cytotoxicity experiments with Eph4 cells. […] Media containing each condition were changed every 12 hours. […] Cells were also stained with Live/Dead Violet (Thermo Scientific, #L34964) in accordance to manufacturers specifications. All flow was performed on a Macsquant 10 (Miltenyl Biotec) and analyzed on FlowJo (TreeStar/BD).
# BPTF bromodomain = target: T5, BPTF bromodomain (Homo sapiens, UniProt Q12830); experiment: BPTF AlphaScreen competitive inhibition assay; type: binding
# T5 construct: 30 nM for His9-tagged BPTF bromodomain and 50 nM for the biotinylated peptide were used; made in house
# Procedure: (§5) General Procedure for AlphaScreen Assay.^36 Unlabeled His9-tagged BPTF and BRD4 D1 were expressed and purified as described previously.^36 The AlphaScreen assay procedures for BPTF and BRD4 bromodomains were adapted from the manufacturers protocol (PerkinElmer, USA). […] The biotinylated Histone H4 KAc5,8,12,16 peptide was purchased from EpiCypher, with the sequence:
# (§6) All reagents were diluted in the assay buffer (50 mM HEPES-Na^+ (ChemImpex), 100 mM NaCl (SigmaAldrich), 0.05% CHAPS (RPI), 0.1% BSA (SigmaAldrich), pH 7.4). The final assay concentrations (after the addition of all assay components) of 30 nM for His9-tagged BPTF bromodomain and 50 nM for the biotinylated peptide were used. […] The plate was sealed and kept at room temperature for 30 min, followed by the addition of 5 μL of the biotinylated peptide. 5 μL of nickel chelate acceptor beads was added to each well under low light conditions (<100 lux), to a final concentration of 20 μg/mL, and the plate was incubated at room temperature in the dark for 30 minutes. This was followed by the addition of 5 μL (20 μg/mL final concentration) of streptavidin donor beads in low light conditions. After incubation for 30 min in the dark, the plate was read in AlphaScreen mode using a PerkinElmer EnSpire plate reader. […] IC50 values were calculated in GraphPad Prism 5 using sigmoidal 4-parameter logistic (4PL) curve
# CECR2 [8] = target: T3, CECR2; conditions: disclosed by the structural genomics consortium; cited from earlier work
# Target sequence in this assay (Q9BXF3 whole entry): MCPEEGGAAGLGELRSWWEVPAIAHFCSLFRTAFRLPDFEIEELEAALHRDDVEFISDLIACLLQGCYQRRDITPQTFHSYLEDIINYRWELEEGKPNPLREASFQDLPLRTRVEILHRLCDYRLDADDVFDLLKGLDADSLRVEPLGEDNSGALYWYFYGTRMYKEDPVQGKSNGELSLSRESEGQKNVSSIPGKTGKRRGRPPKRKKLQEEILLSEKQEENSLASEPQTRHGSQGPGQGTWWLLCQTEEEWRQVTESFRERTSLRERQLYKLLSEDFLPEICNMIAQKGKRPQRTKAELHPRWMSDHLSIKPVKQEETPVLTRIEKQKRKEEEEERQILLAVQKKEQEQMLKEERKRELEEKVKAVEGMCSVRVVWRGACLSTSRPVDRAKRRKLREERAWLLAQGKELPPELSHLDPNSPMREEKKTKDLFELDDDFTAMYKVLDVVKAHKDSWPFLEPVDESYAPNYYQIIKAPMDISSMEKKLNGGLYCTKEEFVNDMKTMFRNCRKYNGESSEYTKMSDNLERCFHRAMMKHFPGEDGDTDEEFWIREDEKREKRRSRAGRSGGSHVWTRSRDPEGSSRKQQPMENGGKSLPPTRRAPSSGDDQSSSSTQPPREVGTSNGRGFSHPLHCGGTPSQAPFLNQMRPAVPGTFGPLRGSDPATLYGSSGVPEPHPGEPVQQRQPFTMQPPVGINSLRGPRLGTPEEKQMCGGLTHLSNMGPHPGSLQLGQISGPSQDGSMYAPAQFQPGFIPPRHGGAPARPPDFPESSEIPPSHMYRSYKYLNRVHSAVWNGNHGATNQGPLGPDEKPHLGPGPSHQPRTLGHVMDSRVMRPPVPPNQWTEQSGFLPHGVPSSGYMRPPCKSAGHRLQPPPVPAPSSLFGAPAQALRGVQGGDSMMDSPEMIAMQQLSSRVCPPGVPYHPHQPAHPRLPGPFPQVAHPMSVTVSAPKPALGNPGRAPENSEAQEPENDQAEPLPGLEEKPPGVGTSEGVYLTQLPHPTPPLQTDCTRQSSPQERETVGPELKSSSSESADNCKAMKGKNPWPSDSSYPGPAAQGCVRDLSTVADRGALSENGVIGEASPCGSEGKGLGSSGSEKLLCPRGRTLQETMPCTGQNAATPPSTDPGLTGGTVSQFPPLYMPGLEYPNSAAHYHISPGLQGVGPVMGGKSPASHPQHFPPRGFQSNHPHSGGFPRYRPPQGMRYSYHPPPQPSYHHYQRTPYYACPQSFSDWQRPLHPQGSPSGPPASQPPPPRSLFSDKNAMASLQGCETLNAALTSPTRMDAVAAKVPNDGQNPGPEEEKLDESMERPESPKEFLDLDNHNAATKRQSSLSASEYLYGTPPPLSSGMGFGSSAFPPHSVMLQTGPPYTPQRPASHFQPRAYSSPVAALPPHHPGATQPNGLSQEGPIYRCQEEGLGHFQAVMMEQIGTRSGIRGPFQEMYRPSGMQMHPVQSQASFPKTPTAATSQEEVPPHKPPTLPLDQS
# 4T1 cells [9] = experiment: Inhibitor toxicity in 4T1 cells (MTS assay); type: cell-based, mouse; conditions: inhibitor alone
# Procedure: as §1, with “For checking the toxicity on wildtype and BPTF knockdown cells, three doses were selected for each inhibitor based on theft toxicity curves and treated for 4 days alone or in combination with 50 nM doxorubicin.” left out
# [10] = system: 4T1 cells with shRNA-mediated BPTF knockdown; experiment: Inhibitors with doxorubicin in BPTF knockdown 4T1 cells; type: cell-based, mouse
# Procedure: as §1, with “For checking the toxicity on wildtype and BPTF knockdown cells, three doses were selected for each inhibitor based on theft toxicity curves and treated for 4 days alone or in combination with 50 nM doxorubicin.” left out
# BPTF = target: T6, BPTF (Homo sapiens, UniProt Q12830); experiment: BROMOscan, BPTF; type: binding
# T6 construct: Kd values for BZ1 with BPTF and off-target class I (PCAF, GCN5L2, CECR2,) and class IV (BRD7, BRD9) bromodomains; purchased
# PCAF [11] = target: T7, PCAF (Homo sapiens, UniProt Q92831); experiment: BROMOscan, PCAF; type: binding
# T7 construct: off-target class I (PCAF, GCN5L2, CECR2,) and class IV (BRD7, BRD9) bromodomains and BRD4(1); purchased
# T7 sequence (Q92831 723-827 limits assumed): T1 sequence (Q92831 723-827)
# Procedure: Given that these measurements were only estimates of affinity, a full titration was carried out for five additional bromodomains (FIG. 5B).
# BRD4(1) [12] = target: T4, BRD4(1); experiment: BRD4(1) AlphaScreen competitive inhibition assay; type: binding; set-up: Unlabeled His9-tagged BPTF and BRD4 D1 were expressed and purified as described previously; made in house
# Procedure: as §5, §6
# PCAF [13] = target: PCAF (Homo sapiens, UniProt Q92831); conditions: previously reported; cited from earlier work
# Target sequence in this assay (Q92831 whole entry): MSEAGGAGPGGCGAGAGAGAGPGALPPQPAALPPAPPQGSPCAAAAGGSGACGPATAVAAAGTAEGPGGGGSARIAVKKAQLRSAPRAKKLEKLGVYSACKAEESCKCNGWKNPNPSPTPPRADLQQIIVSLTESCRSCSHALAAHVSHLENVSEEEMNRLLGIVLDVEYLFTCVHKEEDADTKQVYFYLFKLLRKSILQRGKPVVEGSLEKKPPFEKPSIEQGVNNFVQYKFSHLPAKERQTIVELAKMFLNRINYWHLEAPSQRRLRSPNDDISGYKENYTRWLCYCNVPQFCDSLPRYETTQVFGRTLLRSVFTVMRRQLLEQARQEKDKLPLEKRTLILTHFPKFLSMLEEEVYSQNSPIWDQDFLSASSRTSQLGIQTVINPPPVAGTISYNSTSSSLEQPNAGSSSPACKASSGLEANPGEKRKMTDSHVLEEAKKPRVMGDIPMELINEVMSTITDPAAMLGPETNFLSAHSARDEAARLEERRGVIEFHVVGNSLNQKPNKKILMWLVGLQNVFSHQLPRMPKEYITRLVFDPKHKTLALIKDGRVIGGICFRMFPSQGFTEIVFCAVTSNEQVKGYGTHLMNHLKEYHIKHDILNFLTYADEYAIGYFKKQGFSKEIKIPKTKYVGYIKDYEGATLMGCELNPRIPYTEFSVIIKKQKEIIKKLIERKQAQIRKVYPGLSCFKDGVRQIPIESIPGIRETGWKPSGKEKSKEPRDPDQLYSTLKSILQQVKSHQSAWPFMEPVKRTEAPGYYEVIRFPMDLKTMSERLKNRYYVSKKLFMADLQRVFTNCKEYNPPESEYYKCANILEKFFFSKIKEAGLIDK
# BRD9 = target: T8, BRD9 (Homo sapiens, UniProt Q9H8M2); conditions: previously reported; cited from earlier work
# T8 sequence (Q9H8M2 1-597): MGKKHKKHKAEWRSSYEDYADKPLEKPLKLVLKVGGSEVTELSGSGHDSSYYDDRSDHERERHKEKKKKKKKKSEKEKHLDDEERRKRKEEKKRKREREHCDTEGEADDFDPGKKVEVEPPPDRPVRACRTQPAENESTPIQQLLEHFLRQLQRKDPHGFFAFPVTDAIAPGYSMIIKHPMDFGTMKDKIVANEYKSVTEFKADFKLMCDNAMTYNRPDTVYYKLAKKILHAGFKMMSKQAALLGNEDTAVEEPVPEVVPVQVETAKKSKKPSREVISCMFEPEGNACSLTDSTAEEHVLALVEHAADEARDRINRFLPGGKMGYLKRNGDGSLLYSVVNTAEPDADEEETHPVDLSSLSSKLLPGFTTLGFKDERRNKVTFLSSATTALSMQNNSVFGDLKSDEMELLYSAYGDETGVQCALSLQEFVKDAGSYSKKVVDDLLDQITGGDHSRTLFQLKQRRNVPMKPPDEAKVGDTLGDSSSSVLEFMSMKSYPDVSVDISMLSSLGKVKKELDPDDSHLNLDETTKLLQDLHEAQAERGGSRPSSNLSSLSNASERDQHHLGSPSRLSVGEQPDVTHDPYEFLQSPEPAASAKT
smiles,measurement,setting,value
"Cn1ncc(Nc2ccc(CCN)cc2)c(Cl)c1=O [Compound 18, 5-((4-(2-aminoethyl)phenyl)amino)-4-chloro-2-methylpyridazin-3(2H)-one]",chemical exchange regime with PCAF,PCAF [1],slow exchange regime stoichiometric titration
same,sensitization of 4T1 cells to doxorubicin,4T1 cells [2]; listed as BZ1,synergize with chemotherapy drug doxorubicin; also recorded: sensitized 4T1 cells to doxorubicin
same,solubility,[3],≥ 100 µM
same,inhibition of GCN5L2,GCN5L2,lower levels of inhibition
same,inhibition of CECR2,CECR2 [4],lower levels of inhibition
same,chemical exchange regime with CECR2,CECR2 [5],intermediate chemical exchange
same,chemical exchange regime with BRD4(1),BRD4(1) [6],fast-intermediate exchange
Cc1c(Nc2ccc(S(=O)(=O)N3CCN(C)CC3)cc2F)nc2ccc(-c3cnn(C4CC4)c3)cn2c1=O [NVS-BPTF-1],solubility and ADME properties,[7],poor solubility and ADME properties
"CN(C)CCc1ccc(Nc2cnn(C)c(=O)c2Cl)cc1 [Compound 19, 4-chloro-5-((4-(2-(dimethylamino)ethyl)phenyl)amino)-2-methylpyridazin-3(2H)-one]",sensitization of 4T1 cells to doxorubicin,4T1 cells [2],synergize with chemotherapy drug doxorubicin; also recorded: sensitized 4T1 cells to doxorubicin
same,less effective than BZ1,4T1 cells [2]; dose dependence experiment with doxorubicin,2-4 fold
same,Sfn mRNA level,Sfn,statistically significant increase
same,solubility,[3],≥ 100 µM
same,caspase activation,Eph4 cells,lack of caspase activation
"CN(C)CCc1ccc(Nc2c(Cl)cnn(C)c2=O)cc1 [Compound 20, 5-chloro-4-((4-(2-(dimethylamino)ethyl)phenyl)amino)-2-methylpyridazin-3(2H)-one]",IC50,BPTF bromodomain,10 µM
same,weaker affinity than 18,BPTF bromodomain,140 fold
same,L.E. (ligand efficiency),BPTF bromodomain; from BPTF AlphaScreen,0.32
same,sensitization of 4T1 cells to doxorubicin,4T1 cells [2],did not
same,Sfn mRNA level,Sfn,not significantly affected
same,solubility,[3],≥ 100 µM
CN(C)CCCOc1ccc(-c2cc(NCCCn3cccn3)nc(S(C)(=O)=O)n2)cc1 [TP-238],higher affinity for CECR2 over BPTF,CECR2 [8],12 fold
"COC(=O)c1cccc(NC(=O)N[C@H]2CCN(c3ccnc(Nc4ccc(F)cc4)n3)C2)c1 [AU1, reference compound]",concentration at which toxicity starts,4T1 cells [9],above 16 μM
same,sensitization of 4T1 cells to doxorubicin,4T1 cells [2],synergize with chemotherapy drug doxorubicin
same,further toxicity in BPTF knockdown cells,[10],Additional toxicity was observed
same,Sfn mRNA level,Sfn,upregulated Sfn but did not reach a high enough level of statistical significance
"C#CCn1ncc(Nc2ccc(CN)cc2)c(Cl)c1=O [Compound 24, 5-((4-(aminomethyl)phenyl)amino)-4-chloro-2-(prop-2-yn-1-yl)pyridazin-3(2H)-one]",IC50,BPTF bromodomain,0.38 µM
same,Kd,BPTF,0.2 µM
same,Kd,PCAF [11],0.23 µM
same,IC50,BRD4(1) [12],71 µM
"Cn1ncc(Nc2ccccc2)c(Cl)c1=O [Compound 6, 4-chloro-2-methyl-5-(phenylamino)pyridazin-3(2H)-one]",improvement in affinity compared to previous aliphatic amine analogues,BPTF bromodomain,10 fold
same,affinity for PCAF,PCAF [13],10 µM
same,affinity for BRD9,BRD9,2.5 µM
